Test results from ChEMBL document CHEMBL3885881, “DrugMatrix”.

Organism: Rattus norvegicus
Test: DrugMatrix - Regimen: Daily Repeat
Assay type: toxicity, organism-based, Sprague-Dawley
Design: regimen Daily Repeat, gender Male, age 6-8 weeks
Settings: in vivo, sc, route subcutaneous, […]; for ABSOLUTE BASOPHIL / ABSOLUTE EOSINOPHIL / ABSOLUTE LYMPHOCYTE / ABSOLUTE MONOCYTE / ABSOLUTE SEGMENTED NEUTROPHIL / BASOPHIL / EOSINOPHIL / ERYTHROCYTE COUNT / HEMATOCRIT / HEMOGLOBIN / LEUKOCYTE COUNT / LYMPHOCYTE / MEAN CORPUSCULAR HEMOGLOBIN / MEAN CORPUSCULAR HEMOGLOBIN CONCENTRATION / MEAN CORPUSCULAR VOLUME / MONOCYTE / NEUTROPHIL / NUCLEATED RED BLOOD CELLS / PLATELET COUNT: tissue Blood; for ALANINE AMINOTRANSFERASE / ALBUMIN / ALKALINE PHOSPHATASE / ASPARTATE AMINOTRANSFERASE / BLOOD UREA NITROGEN / CARBON DIOXIDE / CHLORIDE / CHOLESTEROL / CREATINE PHOSPHOKINASE / CREATININE / GLUCOSE / LACTATE DEHYDROGENASE / LIPASE / PHOSPHORUS / POTASSIUM / SODIUM / TOTAL BILIRUBIN / TOTAL PROTEIN / URIC ACID: tissue Plasma
[1] = 50 mg/kg, 120 h, dose level Low, time 5 day
[2] = 150 mg/kg, 72 h, dose level M2, time 3 day
[3] = 150 mg/kg, 120 h, dose level M2, time 5 day

CC(C)(c1ccc(O)cc1)c1ccc(O)cc1 [BISPHENOL A]
ABSOLUTE BASOPHIL [1]: 0 CELLS/uL
ABSOLUTE EOSINOPHIL [1]: 0 CELLS/uL
ABSOLUTE LYMPHOCYTE [1]: 15258.67 CELLS/uL
ABSOLUTE MONOCYTE [1]: 508.33 CELLS/uL
ABSOLUTE SEGMENTED NEUTROPHIL [1]: 1433 CELLS/uL
BASOPHIL [1]: 0%
EOSINOPHIL [1]: 0%
ERYTHROCYTE COUNT [1]: 5.65 x10E6/uL
HEMATOCRIT [1]: 35.13%
HEMOGLOBIN [1]: 13.73 G/DL
LEUKOCYTE COUNT [1]: 17.2 x10E3/uL
LYMPHOCYTE [1]: 89%
MEAN CORPUSCULAR HEMOGLOBIN [1]: 24.33 pg
MEAN CORPUSCULAR HEMOGLOBIN CONCENTRATION [1]: 39.07 G/DL
MEAN CORPUSCULAR VOLUME [1]: 62.23 fL
MONOCYTE [1]: 2.33%
NEUTROPHIL [1]: 8.67%
NUCLEATED RED BLOOD CELLS [1]: 0 /100WBC
PLATELET COUNT [1]: 1289 x10E3/uL
ALANINE AMINOTRANSFERASE [1]: 62.67 u/L
ALBUMIN [1]: 3.57 G/DL
ALKALINE PHOSPHATASE [1]: 300 u/L
ASPARTATE AMINOTRANSFERASE [1]: 93 u/L
BLOOD UREA NITROGEN [1]: 14.67 mg/dL
CARBON DIOXIDE [1]: 24 mmol/L
CHLORIDE [1]: 103.67 MEQ/L
CHOLESTEROL [1]: 48.67 mg/dL
CREATINE PHOSPHOKINASE [1]: 675.67 u/L
CREATININE [1]: 0.15 mg/dL
GLUCOSE [1]: 190.67 mg/dL
LACTATE DEHYDROGENASE [1]: 256.67 u/L
LIPASE [1]: 11.67 u/L
PHOSPHORUS [1]: 13.4 mg/dL
POTASSIUM [1]: 6.14 MEQ/L
SODIUM [1]: 142.27 MEQ/L
TOTAL BILIRUBIN [1]: 0.1 mg/dL
TOTAL PROTEIN [1]: 5.27 G/DL
URIC ACID [1]: 2.23 mg/dL
ABSOLUTE BASOPHIL [2]: 0 CELLS/uL
ABSOLUTE EOSINOPHIL [2]: 21 CELLS/uL
ABSOLUTE LYMPHOCYTE [2]: 7705 CELLS/uL
ABSOLUTE MONOCYTE [2]: 0 CELLS/uL
ABSOLUTE SEGMENTED NEUTROPHIL [2]: 574 CELLS/uL
BASOPHIL [2]: 0%
EOSINOPHIL [2]: 0.33%
ERYTHROCYTE COUNT [2]: 5.46 x10E6/uL
HEMATOCRIT [2]: 34.77%
HEMOGLOBIN [2]: 13.53 G/DL
LEUKOCYTE COUNT [2]: 8.3 x10E3/uL
LYMPHOCYTE [2]: 92.33%
MEAN CORPUSCULAR HEMOGLOBIN [2]: 24.8 pg
MEAN CORPUSCULAR HEMOGLOBIN CONCENTRATION [2]: 38.97 G/DL
MEAN CORPUSCULAR VOLUME [2]: 63.67 fL
MONOCYTE [2]: 0%
NEUTROPHIL [2]: 7.33%
NUCLEATED RED BLOOD CELLS [2]: 0 /100WBC
PLATELET COUNT [2]: 1030 x10E3/uL
ALANINE AMINOTRANSFERASE [2]: 54.67 u/L
ALBUMIN [2]: 3.73 G/DL
ALKALINE PHOSPHATASE [2]: 286.67 u/L
ASPARTATE AMINOTRANSFERASE [2]: 73 u/L
BLOOD UREA NITROGEN [2]: 9.33 mg/dL
CARBON DIOXIDE [2]: 21 mmol/L
CHLORIDE [2]: 96 MEQ/L
CHOLESTEROL [2]: 72.67 mg/dL
CREATINE PHOSPHOKINASE [2]: 254.33 u/L
CREATININE [2]: 0.11 mg/dL
GLUCOSE [2]: 143 mg/dL
LACTATE DEHYDROGENASE [2]: 106.33 u/L
LIPASE [2]: 8 u/L
PHOSPHORUS [2]: 11.83 mg/dL
POTASSIUM [2]: 5.68 MEQ/L
SODIUM [2]: 141.4 MEQ/L
TOTAL BILIRUBIN [2]: 0.1 mg/dL
TOTAL PROTEIN [2]: 5.57 G/DL
URIC ACID [2]: 0.53 mg/dL
ABSOLUTE BASOPHIL [3]: 0 CELLS/uL
ABSOLUTE EOSINOPHIL [3]: 91.33 CELLS/uL
ABSOLUTE LYMPHOCYTE [3]: 12830 CELLS/uL
ABSOLUTE MONOCYTE [3]: 122 CELLS/uL
ABSOLUTE SEGMENTED NEUTROPHIL [3]: 2190 CELLS/uL
BASOPHIL [3]: 0%
EOSINOPHIL [3]: 0.67%
ERYTHROCYTE COUNT [3]: 5.93 x10E6/uL
HEMATOCRIT [3]: 36.47%
HEMOGLOBIN [3]: 14.23 G/DL
LEUKOCYTE COUNT [3]: 15.23 x10E3/uL
LYMPHOCYTE [3]: 85%
MEAN CORPUSCULAR HEMOGLOBIN [3]: 24.1 pg
MEAN CORPUSCULAR HEMOGLOBIN CONCENTRATION [3]: 39.03 G/DL
MEAN CORPUSCULAR VOLUME [3]: 61.63 fL
MONOCYTE [3]: 0.67%
NEUTROPHIL [3]: 13.67%
NUCLEATED RED BLOOD CELLS [3]: 0.33 /100WBC
PLATELET COUNT [3]: 1323.33 x10E3/uL
ALANINE AMINOTRANSFERASE [3]: 59 u/L
ALBUMIN [3]: 3.77 G/DL
ALKALINE PHOSPHATASE [3]: 246.33 u/L
ASPARTATE AMINOTRANSFERASE [3]: 81.67 u/L
BLOOD UREA NITROGEN [3]: 13.33 mg/dL
CARBON DIOXIDE [3]: 25.67 mmol/L
CHLORIDE [3]: 102.67 MEQ/L
CHOLESTEROL [3]: 61.67 mg/dL
CREATINE PHOSPHOKINASE [3]: 253 u/L
CREATININE [3]: 0.21 mg/dL
GLUCOSE [3]: 193 mg/dL
LACTATE DEHYDROGENASE [3]: 151.67 u/L
LIPASE [3]: 10 u/L
PHOSPHORUS [3]: 13.27 mg/dL
POTASSIUM [3]: 5.91 MEQ/L
SODIUM [3]: 142.47 MEQ/L
TOTAL BILIRUBIN [3]: 0.13 mg/dL
TOTAL PROTEIN [3]: 5.57 G/DL
URIC ACID [3]: 2.37 mg/dL
